System: trivalent bacterial-fungal inocula
Assay: 15-day biofouling control in B-100 biodiesel:Bushnell-Haas broth, visual turbidity
Type: cell-based
Set-up: key: 0 = No Growth; 1 = Slight Growth; 2 = Moderate Growth; 3 = Heavy Growth
Conditions: biocide 0 mg/L, 15 days, 22° C., trivalent inoculum 50 uL
Experimental: Antimicrobial efficacy data (Table 54 & Table 55) were obtained for 1,4-CHDM with and without biocide in protection of B-100 biodiesel from microbial growth derived via either biodiesel-acclimated bioslime or trivalent bacterial-fungal inocula after 15-day exposure at 22° C. This testing was via a visual turbidity methodology. Neither micro-liter plates nor automatic plate reader could be used in this experiment due to the inherent biphasic nature of the system. B-100 biodiesel:Bushnell-Haas broth was used, which is a minimal salts medium specially designed for evaluating growth of microorganisms on hydrocarbons. Samples were evaluated visually (i.e., the more the turbidity, the more the growth, the less the turbidity, the less the growth, and no turbidity means no growth).

Measured: Growth (visual turbidity rating)

OCC1CCC(CO)CC1 (centres unmarked) [1,4-CHDM, 1,4-cyclohexanedimethanol]
3: 1,4-CHDM 0.1% (v/v) | 1,4-CHDM 0.2% (v/v) | 1,4-CHDM 0.3% (v/v) | 1,4-CHDM 0.4% (v/v) | 1,4-CHDM 0.5% (v/v)

Reference: patent publication US20110028566A1, “COMPOSITIONS AND PRODUCTS CONTAINING CYCLOALIPHATIC DIOL ANTIMICROBIAL AGENTS AND METHODS OF USING THE COMPOSITIONS AND PRODUCTS” (EASTMAN CHEMICAL COMPANY, priority 2009, published 2011)
